Results: patent US4257941A, “Polycyclic nitrogen-containing compounds” (BASF Aktiengesellschaft, priority 1976, dated 1981)
Where two headings read alike, the source gives them in different places.

What was measured:
Alopecurus myosuroides = experiment: Herbicidal action (Example 25); format: in vivo; settings: Alopecurus myosuroides, read-out: percentage damage; for pest or weed control at 1000 g/ha: 1.0 kg/ha; for pest or weed control at 2000 g/ha: 2.0 kg/ha
Procedure: (§1) Paraffined paper cups having a volume of 170 cm^3 were filled with a sandy loam, and the seeds of the test plants sown therein, separated by species. (The species are also listed below.)
(§2) In the first group, treatment was effected immediately after sowing and before germination of the seeds (preemergence treatment=soil treatment). Shallow sown seeds not completely covered with soil came into contact with the active ingredients. In the second group, the plants were treated postemergence (=leaf treatment) at a growth height of from 2 to 8 cm, depending on the rate of growth and shape of the species concerned. The compounds were suspended or emulsified in water and applied with the aid of fine nozzles. The soil and plants were thoroughly sprinkler irrigated for the duration of the experiment. The cups were placed in the greenhouse and kept in the temperature range 12°-25° C. or 18°-35° C., depending on the temperature requirements of the various species. After 2 to 6 weeks the action was assessed visually on a 0 to 100 scale, 0 denoting no damage and 100 denoting plants not germinated or completely destroyed.

Sinapis alba = experiment: Herbicidal action (Example 25); format: in vivo; settings: read-out: percentage damage; for pest or weed control at 1000 g/ha: 1.0 kg/ha; for pest or weed control at 2000 g/ha: 2.0 kg/ha
Procedure: as §1, §2

Echinochloa crus galli = experiment: Herbicidal action (Example 25); format: in vivo
Procedure: as §1, §2

Galium aparine = experiment: Herbicidal action (Example 25); format: in vivo; settings: post-emergence, postemergence, 4.0 kg/ha, read-out: percentage damage
Procedure: as §1, §2

Festuca rubra = experiment: Growth height of individual grasses (Example 15); format: in vivo; settings: for Growth height: 3 weeks after treatment; for growth height relative: control 100
Procedure: (§3) Under the same conditions as in Example 13 the two grasses Festuca rubra and Poa praetensis (both components of the lawn mixture used in Example 13) were grown in a neutral sandy loam. The growth height was measured 3 weeks after treatment with the active ingredients.

Poa praetensis = experiment: Growth height of individual grasses (Example 15); format: in vivo; set-up: key to plant color: ^+: plants a darker green; settings: for Growth height: 3 weeks after treatment; for growth height relative: control 100
Procedure: as §3

sugar beet = experiment: Yield and sugar content of sugar beet (Example 20); format: in vivo, sugar beet (KAWpoly variety); settings: for Sugar content of lower stems rel. / Sugar content rel. / Yield rel.: control 100
Procedure: Sugar beets of the KAWpoly variety were grown in a neutral sandy loam in large pots. Fertilization with 1.5 g N as ammonium nitrate and 1 g P2 O5 as secondary potassium phosphate took place at the time of sowing. At a plant height of 16 to 18 cm the leaves were treated twice, once with 0.5 kg/ha and once with 1 kg/ha; in each case, 4 pots formed a variation of the experiment.

`COc1ccc(NC(=O)N(C)C)cc1Cl` showed a pest or weed control at 1000 g/ha (Alopecurus myosuroides; post-emergence, postemergence) of 70%, a pest or weed control at 2000 g/ha (Alopecurus myosuroides; post-emergence, postemergence) of 70% and a pest or weed control at 1000 g/ha (Alopecurus myosuroides; pre-emergence, preemergence) of 0%. For the same compound, the pest or weed control at 2000 g/ha (Alopecurus myosuroides; pre-emergence, preemergence) was 0%, the pest or weed control at 1000 g/ha (Sinapis alba; post-emergence, postemergence) was 100% and the pest or weed control at 2000 g/ha (Sinapis alba; post-emergence, postemergence) was 100%. The pest or weed control at 1000 g/ha (Sinapis alba; pre-emergence, preemergence) was 90%, the pest or weed control at 2000 g/ha (Sinapis alba; pre-emergence, preemergence) was 90% and the percentage damage (Echinochloa crus galli; postemergence, 1.0 kg/ha) was 100 percentage damage. For the same compound, the percentage damage (Echinochloa crus galli; postemergence, 2.0 kg/ha) was 100 percentage damage, the percentage damage (Echinochloa crus galli; preemergence, 1.0 kg/ha) was 80 percentage damage and the percentage damage (Echinochloa crus galli; preemergence, 2.0 kg/ha) was 90 percentage damage. It also gave a pest or weed control at 4000 g/ha (Galium aparine) of 50%.
`O=C(Nc1ccc(Cl)c(Cl)c1)C1CC1` showed a pest or weed control at 1000 g/ha (Alopecurus myosuroides; post-emergence, postemergence) of 80%, a pest or weed control at 2000 g/ha (Alopecurus myosuroides; post-emergence, postemergence) of 30% and a pest or weed control at 1000 g/ha (Alopecurus myosuroides; pre-emergence, preemergence) of 0%. The pest or weed control at 2000 g/ha (Alopecurus myosuroides; pre-emergence, preemergence) was 0%, the pest or weed control at 1000 g/ha (Sinapis alba; post-emergence, postemergence) was 100% and the pest or weed control at 2000 g/ha (Sinapis alba; post-emergence, postemergence) was 100%. The pest or weed control at 1000 g/ha (Sinapis alba; pre-emergence, preemergence) was 60%, the pest or weed control at 2000 g/ha (Sinapis alba; pre-emergence, preemergence) was 60% and the percentage damage (Echinochloa crus galli; postemergence, 1.0 kg/ha) was 100 percentage damage. For the same compound, the percentage damage (Echinochloa crus galli; postemergence, 2.0 kg/ha) was 100 percentage damage, the percentage damage (Echinochloa crus galli; preemergence, 1.0 kg/ha) was 80 percentage damage and the percentage damage (Echinochloa crus galli; preemergence, 2.0 kg/ha) was 90 percentage damage. The pest or weed control at 4000 g/ha (Galium aparine) was 0%.
Work on `CCc1cccc(CC)c1N(COC)C(=O)CCl` yielded a pest or weed control at 1000 g/ha (Alopecurus myosuroides; post-emergence, postemergence) of 40%, a pest or weed control at 2000 g/ha (Alopecurus myosuroides; post-emergence, postemergence) of 50% and a pest or weed control at 1000 g/ha (Alopecurus myosuroides; pre-emergence, preemergence) of 20%. For the same compound, the pest or weed control at 2000 g/ha (Alopecurus myosuroides; pre-emergence, preemergence) was 78%, the pest or weed control at 1000 g/ha (Sinapis alba; post-emergence, postemergence) was 0% and the pest or weed control at 2000 g/ha (Sinapis alba; post-emergence, postemergence) was 0%. It also gave a pest or weed control at 1000 g/ha (Sinapis alba; pre-emergence, preemergence) of 0%, a pest or weed control at 2000 g/ha (Sinapis alba; pre-emergence, preemergence) of 0% and a percentage damage (Echinochloa crus galli; postemergence, 1.0 kg/ha) of 98 percentage damage. For the same compound, the percentage damage (Echinochloa crus galli; postemergence, 2.0 kg/ha) was 98 percentage damage, the percentage damage (Echinochloa crus galli; preemergence, 1.0 kg/ha) was 100 percentage damage and the percentage damage (Echinochloa crus galli; preemergence, 2.0 kg/ha) was 100 percentage damage. It also gave a pest or weed control at 4000 g/ha (Galium aparine) of 0%.
`Clc1ccc(N2N=NC3C4CC(C5N=NC45)C32)cc1` (stereo not shown) [drawing 385] was tested, and the Growth height (Festuca rubra; 0.5 kg/ha) was 27.0 cm, the growth height relative (Festuca rubra; 0.5 kg/ha) was 98.2 and the Growth height (Festuca rubra; 1.0 kg/ha) was 25.5 cm. It also gave a growth height relative (Festuca rubra; 1.0 kg/ha) of 92.7, a Growth height (Festuca rubra; 2.0 kg/ha) of 23.5 cm and a growth height relative (Festuca rubra; 2.0 kg/ha) of 85.5. The Growth height (Poa praetensis; 0.5 kg/ha) was 20.0 cm, the growth height relative (Poa praetensis; 0.5 kg/ha) was 88.9 and the plant color (Poa praetensis; 1.0 kg/ha) was “^+”. For the same compound, the Growth height (Poa praetensis; 1.0 kg/ha) was 20.0 cm, the growth height relative (Poa praetensis; 1.0 kg/ha) was 88.9 and the plant color (Poa praetensis; 2.0 kg/ha) was “^+”. For the same compound, the Growth height (Poa praetensis; 2.0 kg/ha) was 15.5 cm and the growth height relative (Poa praetensis; 2.0 kg/ha) was 68.9.
`Brc1ccc(N2N=NC3C4CC(C5N=NC45)C32)cc1` (stereo not shown) [drawing 386] was tested, and the Growth height (Festuca rubra; 0.5 kg/ha) was 29.5 cm, the growth height relative (Festuca rubra; 0.5 kg/ha) was 107.3 and the Growth height (Festuca rubra; 1.0 kg/ha) was 27.5 cm. It also gave a growth height relative (Festuca rubra; 1.0 kg/ha) of 100.0, a Growth height (Festuca rubra; 2.0 kg/ha) of 25.5 cm and a growth height relative (Festuca rubra; 2.0 kg/ha) of 92.7. For the same compound, the Growth height (Poa praetensis; 0.5 kg/ha) was 19.0 cm, the growth height relative (Poa praetensis; 0.5 kg/ha) was 84.4 and the plant color (Poa praetensis; 1.0 kg/ha) was “^+”. The Growth height (Poa praetensis; 1.0 kg/ha) was 17.5 cm, the growth height relative (Poa praetensis; 1.0 kg/ha) was 77.8 and the plant color (Poa praetensis; 2.0 kg/ha) was “^+”. The Growth height (Poa praetensis; 2.0 kg/ha) was 14.0 cm and the growth height relative (Poa praetensis; 2.0 kg/ha) was 62.2.
For `Brc1ccc(N2N=NC3C4CC(C5N=NC45)C32)cc1` (stereo not shown) [drawing 400], the Sugar content (sugar beet; 0.5 kg/ha) was 51.0 % in dry substance, the “Sugar content of lower stems” value (sugar beet; 0.5 kg/ha) was 22.9 % in dry substance and the Yield (sugar beet; 0.5 kg/ha) was 13.04 g dry substance/vessel. For the same compound, the “Sugar content of lower stems rel.” value (sugar beet; 0.5 kg/ha) was 100.9, the Sugar content rel. (sugar beet; 0.5 kg/ha) was 101.4 and the Yield rel. (sugar beet; 0.5 kg/ha) was 107.4. The Sugar content (sugar beet; 1.0 kg/ha) was 52.2 % in dry substance, the “Sugar content of lower stems” value (sugar beet; 1.0 kg/ha) was 25.8 % in dry substance and the Yield (sugar beet; 1.0 kg/ha) was 14.39 g dry substance/vessel. For the same compound, the “Sugar content of lower stems rel.” value (sugar beet; 1.0 kg/ha) was 113.6, the Sugar content rel. (sugar beet; 1.0 kg/ha) was 103.8 and the Yield rel. (sugar beet; 1.0 kg/ha) was 118.5.
